Legend:
[1] = biological target: T1, Recombinant human c-KIT kinase (Homo sapiens, UniProt P10721); assay: c-KIT kinase chemiluminescence assay (ADP-Glo); format: biochemical; details: ATP 50 μM
T1 construct: purchased Promega V4498
Protocol: The c-KIT Kinase Enzyme System (V4498) and ADP-Glo™ Kinase Assay kit (V6930) were purchased from Promega (Madison, WI). DMSO (D2650) was purchased from Sigma-Aldrich (Burlington, MA).
c-KIT Kinase Chemiluminescence Assay:
Kinase Reaction: The kinase assay was based on the recommended protocol by c-KIT Kinase Enzyme System from Promega. Recombinant human c-KIT kinase in 3 μL of assay buffer (40 mM Tris pH 7.5, 20 mM MgCl2, 0.1 mg/mL BSA and 50 μM DTT) was added to the test or high control wells and 3 μL of assay buffer was added to the low control wells. The microplate was centrifuged at 800 rotations per minute (rpm) for 60 s and incubated at room temperature (RT) for 30 min. Next, 2 μL of buffered ATP and polyEY substrate solution was added to all wells. The microplate was centrifuged at 800 rpm for 60 s and incubated at RT for 2 h.
ADP detection with ADP-Glo™ Kinase Assay: After the kinase reaction incubation, 5 μL of ADP-Glo™ reagent was added to all wells. The microplate was centrifuged at 800 rpm for 60 s and incubated at RT for 40 min. Ten microliter (10 μL) of Kinase Detection Reagent (Luciferin-Luciferase system) was then added to all wells. The microplate was centrifuged at 800 rpm for 60 s and incubated at RT for 60 min. Kinase activity was measured as an increase in luminescence at RT in an Envision plate reader equipped with 560 nm filters and operating in endpoint mode.
Data Analysis: Endpoint chemiluminescence from high and low control wells were used to calculate normalized c-KIT activity at various concentrations of test compounds. The normalized activities were fitted to inhibitor-versus-normalized response fit in GraphPad Prism 7 to determine half-maximal inhibitory concentration (IC50) and hill coefficient values (H).
Where I is the inhibitor concentration and H is the Hill coefficient.

[2] = tested on: M-07e cells which endogenously express human c-KIT; assay: M-07e cellular assay: SCF-mediated cell proliferation (CellTiter Glo); format: cell-based; details: 72 h, SCF-mediated proliferation of M-07e cells
Protocol: M-07e cells (Creative Bioarray, CSC-C0249) which endogenously express human c-KIT were used to evaluate the effect of compounds on stem cell factor (SCF)-mediated cell proliferation. M-07e cells were cultured in growth media (RPMI+10% FBS+1% penicillin/streptomycin+10 ng/mL GM-CSF) at 5E5-1.5E6 cells/mL, replenishing media every 3-4 days. 1.5E4 cells were seeded per well in 384 well tissue culture treated plates in […] assay media (RPMI+10% FBS+1% penicillin/streptomycin) without growth factor stimulation and incubated at 37° C. in a CO2 humidity-controlled incubator. Twenty-four hours later, three-fold serially diluted test compounds in media containing SCF (at the previously determined EC90) were added to the plated M-07e cells and incubated for an additional 72 hours. Cell viability was determined by adding 25 μL CellTiter Glo (Promega) to the cells and the luminescence was measured using a Perkin Elmer Envision plate reader. The EC50 was determined using GraphPad Prism. Percent cell growth was determined after normalizing the curve to the mean RLU high control (no compound control wells) at 100% and the mean RLU low control (no SCF control wells) at 0%.

T1 sequence (P10721 544-976 limits assumed): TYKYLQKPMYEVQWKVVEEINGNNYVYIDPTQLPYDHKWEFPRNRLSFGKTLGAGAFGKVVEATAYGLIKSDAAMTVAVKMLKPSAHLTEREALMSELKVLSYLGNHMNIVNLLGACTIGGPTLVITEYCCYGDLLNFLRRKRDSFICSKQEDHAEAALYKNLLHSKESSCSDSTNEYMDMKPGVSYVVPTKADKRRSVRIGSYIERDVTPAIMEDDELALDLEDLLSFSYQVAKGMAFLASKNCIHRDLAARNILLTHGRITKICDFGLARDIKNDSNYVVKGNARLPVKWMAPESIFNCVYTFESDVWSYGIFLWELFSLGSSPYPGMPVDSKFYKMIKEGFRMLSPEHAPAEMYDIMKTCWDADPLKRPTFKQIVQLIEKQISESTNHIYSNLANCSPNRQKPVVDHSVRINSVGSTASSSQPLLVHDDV

IC50 [1]	Structure (SMILES)	EC50 [2]
100 to 1000 nM	CCn1nnc(-c2cnc(C)c(NC(=O)c3cnn4ccc(N5CC6(C5)CC(O)(C(F)F)C6)cc34)c2)n1 [Example 382]	< 100 nM
100 to 1000 nM	Cc1ncc(-c2noc([C@H]3C[C@@H]3F)n2)cc1NC(=O)c1cnc(-c2ccc3nn(CC(C)(C)O)c(C)c3c2)o1 [Example 23a]	100 to 1000 nM
< 100 nM	COC(=O)N1CC(c2nc(-c3cc(NC(=O)c4cnn5ccc(N6CC7(C6)CC(O)(C(F)F)C7)cc45)c(C)s3)no2)C1 [Example 388]	< 100 nM
100 to 1000 nM	Cc1ncc(-c2nnn(C[C@H](O)C(F)(F)F)n2)cc1NC(=O)c1cnn2ccc(N3CC4(C3)CC(O)(C(F)F)C4)cc12 [Example 380]	100 to 1000 nM
< 100 nM	COCCn1nc(C)c(-c2ccc3c(C(=O)Nc4cc(-c5noc([C@H]6C[C@@H]6F)n5)ccc4C)cnn3c2)c1C [Example 147]	< 100 nM
> 1000 nM	Cc1ncc(-c2ncc(OC(F)(F)F)cn2)cc1NC(=O)c1cnn2ccc(-c3c(C)nc(N)nc3C)cc12 [Example 364]	
< 100 nM	Cc1ncc(-c2noc(C3C[C@@H]3F)n2)cc1NC(=O)c1cnn2ccc(-c3cn(C[C@H](O)C(C)(C)O)nc3C3CC3)cc12 (stereo partly shown) [Example 406]	< 100 nM
< 100 nM	Cc1ncc(-c2noc(C3CC(OC(F)F)C3)n2)cc1NC(=O)c1cnn2ccc(N3CC4(C3)CC(O)(C(F)F)C4)cc12 (stereo not shown) [Example 281-44]	< 100 nM
< 100 nM	Cc1ccc(-c2noc([C@H]3C[C@@H]3F)n2)cc1NC(=O)c1cnc2n1Cc1ccccc1-2 [Example 99]	
	Cc1ccc(-c2noc([C@H]3C[C@@H]3F)n2)cc1NC(=O)c1cnc(N2CC(C(=O)O)C2)s1 [Example 98-4]	> 1000 nM
> 1000 nM	Cc1ncc(-c2noc(C3C[C@@H]3C(F)F)n2)cc1NC(=O)c1ccc(NC(=O)OC(C)(C)C)nc1 (stereo partly shown) [Example 399]	> 1000 nM
100 to 1000 nM	O=C(Nc1cc(-c2ncc(C3CC3)cn2)ccc1C(F)F)c1cnn2ccc(N3CC4(C3)CC(O)(C(F)F)C4)cc12 [Example 393]	< 100 nM
> 1000 nM	Cc1nc(N)nc(C)c1-c1ccn2ncc(C(=O)Nc3cc(-c4noc(C5CN(C(=O)[C@H]6C[C@@H]6F)C5)n4)sc3C)c2c1 [Example 371]	
	O=C(Nc1cn(-c2ccc(C3CC3)cc2)nc1C(F)F)c1cnn2ccc(N3CC4(COC4)C3)cc12 [compound 373]	> 1000 nM
> 1000 nM	Cc1ccc(-c2noc([C@H]3C[C@@H]3F)n2)cc1NC(=O)c1cnc(-c2cnc(N)nc2)o1 [Example 308-64]	
> 1000 nM	Cc1ncc(-c2noc([C@H]3C[C@@H]3C(F)F)n2)cc1NC(=O)c1cnn2ccc(-c3c(C)nc(N)nc3C)cc12 [Example 391]	> 1000 nM
100 to 1000 nM	COCCn1nnc(-c2cnc(C)c(NC(=O)c3cnn4ccc(N5CC6(C5)CC(O)(C(F)F)C6)cc34)c2)n1 [Example 386]	100 to 1000 nM
100 to 1000 nM	Cc1ncc(-c2nnc(C3C[C@@H]3F)s2)cc1NC(=O)c1cnn2ccc(N3CC4(C3)CC(O)(C(F)F)C4)cc12 (stereo partly shown) [Example 407]	< 100 nM
100 to 1000 nM	Cc1ncc(-c2nnn(C[C@@H](O)C(F)(F)F)n2)cc1NC(=O)c1cnn2ccc(N3CC4(C3)CC(O)(C(F)F)C4)cc12 [Example 381]	100 to 1000 nM
100 to 1000 nM	Cc1ncc(-c2nnn(C3CC3)n2)cc1NC(=O)c1cnn2ccc(N3CC4(C3)CC(O)(C(F)F)C4)cc12 [Example 403]	< 100 nM
> 1000 nM	Cc1ncc(-c2nnn[nH]2)cc1NC(=O)c1cnn2ccc(N3CC4(C3)CC(O)(C(F)F)C4)cc12 [Example 394]	> 1000 nM

IC50 [1]	Structure (SMILES)	EC50 [2]
> 1000 nM	Cc1nc(N)nc(C)c1-c1ccn2ncc(C(=O)Nc3cc(-c4noc([C@H]5C[C@@H]5F)n4)sc3C)c2c1 [Example 370]	
< 100 nM	Cc1ccc(-c2noc([C@H]3C[C@@H]3F)n2)cc1NC(=O)c1cnc(-c2ccc3nn(CC(C)(C)O)c(C)c3c2)o1 [Example 21a]	< 100 nM
100 to 1000 nM	Cc1ncc(-c2nnn(CCC(F)(F)F)n2)cc1NC(=O)c1cnn2ccc(N3CC4(C3)CC(O)(C(F)F)C4)cc12 [Example 384]	< 100 nM
100 to 1000 nM	Cc1ncc(-c2nnc(C3C[C@@H]3F)o2)cc1NC(=O)c1cnn2ccc(N3CC4(C3)CC(O)(C(F)F)C4)cc12 (stereo partly shown) [Example 404]	100 to 1000 nM
100 to 1000 nM	Cc1cc(F)c(-c2noc(C3CC(OC(F)F)C3)n2)cc1NC(=O)c1cnn2ccc(N3CC4(COC4)C3)cc12 (stereo not shown) [Example 281-58]	100 to 1000 nM
	Cc1ccc(-c2noc([C@H]3C[C@@H]3F)n2)cc1NC(=O)c1cnn2cc(-c3cn(C(F)F)nn3)ccc12 [Example 107]	< 100 nM
> 1000 nM	O=C(Nc1cc(-c2ncc(C3CC3)cn2)ccc1C(F)F)c1cnn2ccc(Br)cc12 [Example 392]	> 1000 nM
> 1000 nM	Cc1ccc(-c2noc([C@H]3C[C@@H]3F)n2)cc1NC(=O)c1ccc(N)nc1 [Example 397]	> 1000 nM
< 100 nM	Cc1ncc(-c2nnn(C3CCC(F)(F)CC3)n2)cc1NC(=O)c1cnn2ccc(N3CC4(C3)CC(O)(C(F)F)C4)cc12 [Example 385]	< 100 nM
100 to 1000 nM	Cc1ncc(-c2ncc(OC(F)(F)F)cn2)cc1NC(=O)c1cnn2ccc(N3CC4(C3)CC(O)(C(F)F)C4)cc12 [Example 313]	< 100 nM
> 1000 nM	Cc1ccc(-c2noc(C3C[C@@H]3C(F)F)n2)cc1NC(=O)c1ccc(N)nc1 (stereo partly shown) [Example 400]	> 1000 nM
> 1000 nM	Cc1nn(-c2ccc(C3CC3)cc2)cc1NC(=O)c1cnn2ccc(N3CC4(COC4)C3)cc12 [Example 372]	
	Cc1ccc(-c2noc([C@H]3C[C@@H](OC(F)F)C3)n2)cc1NC(=O)c1cnn2ccc(N3CC4(COC4)C3)cc12 [Example 242]	< 100 nM
	C#Cc1ccc2c(C(=O)Nc3cc(-c4noc([C@H]5C[C@@H]5F)n4)ccc3C)cnn2c1 [Example 106]	< 100 nM
> 1000 nM	Cc1ccc(-c2noc(C3C[C@@H]3F)n2)cc1NC(=O)c1cnc(-c2cnc(N3CC(O)(C(F)(F)F)C3)nc2)o1 (stereo partly shown) [Example 402]	100 to 1000 nM
100 to 1000 nM	Cc1ncc(-c2noc(C3CC(OC(F)F)C3)n2)cc1NC(=O)c1cnn2ccc(N3CC4(C3)CC(O)(C(F)(F)F)C4)cc12 (stereo not shown) [Example 281-40]	< 100 nM
> 1000 nM	Cc1ncc(-c2nnn(CCO)n2)cc1NC(=O)c1cnn2ccc(N3CC4(C3)CC(O)(C(F)F)C4)cc12 [Example 387]	> 1000 nM
> 1000 nM	Cc1nc(N)nc(C)c1-c1ccn2ncc(C(=O)Nc3cc(-c4noc(C5CN(C(=O)OC(C)(C)C)C5)n4)sc3C)c2c1 [Example 369]	
> 1000 nM	Cc1nc(N)nc(C)c1-c1ccn2ncc(C(=O)Nc3cc(-c4noc([C@H]5C[C@@H](OC(F)(F)F)C5)n4)sc3C)c2c1 [Example 368]	
< 100 nM	Cc1ncc(-c2ccn3ncc(C(=O)Nc4cc(-c5noc([C@H]6C[C@@H]6F)n5)ccc4C)c3c2)c(C)n1 [Example 168]	

Structure (SMILES)	IC50 [1]	EC50 [2]
Cc1ccc(-c2noc([C@H]3C[C@@H]3F)n2)cc1NC(=O)c1cnc2cccnn12 [Example 16]	> 1000 nM	
Cc1ccc(-c2nc([C@H]3C[C@@H]3F)cs2)cc1NC(=O)c1cnn2ccc(N3CC4(COC4)C3)cc12 [Example 309]	< 100 nM	

— patent US20250304600A1, “PHARMACEUTICAL COMPOUNDS AND COMPOSITIONS AS c-KIT KINASE INHIBITORS” (Enanta Pharmaceuticals, Inc., priority 2023, published 2025)
